From the supplement of paper PMC10307832

How the values were obtained:
Assay in all cases: relative viability (nuclei count vs DMSO), 5 days (fraction); higher = more cells survive
NCI-H596 = tested on: NCI-H596
How it was run: (§1)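 Lung cancer cell lines in 1536-well plates were dosed by pin tool the day after seeding, either with one drug alone or with a fixed anchor-drug dose plus five library-drug doses (not always all listed) in √10 steps. After 5 days, cells were fixed and their nuclei stained in one step (final 0.05% Triton X-100, 1% formaldehyde, 1 ug/ml Hoechst), then counted on 4× images. Relative viability is the nuclei count in treated wells divided by that in vehicle wells. Values are medians of duplicate plates.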

A549 = tested on: A549
How it was run: as §1

EBC-1 = tested on: EBC-1
How it was run: as §1

IA-LM = tested on: IA-LM
How it was run: as §1

NCI-H1703 = tested on: NCI-H1703
How it was run: as §1

SK-LU-1 = tested on: SK-LU-1
How it was run: as §1

PC-14 = tested on: PC-14
How it was run: as §1

NCI-H1299 = tested on: NCI-H1299
How it was run: as §1

NCI-H1944 = tested on: NCI-H1944
How it was run: as §1

NCI-H1666 = tested on: NCI-H1666
How it was run: as §1

NCI-H661 = tested on: NCI-H661
How it was run: as §1

Calu-6 = tested on: Calu-6
How it was run: as §1

NCI-H1623 = tested on: NCI-H1623
How it was run: as §1

Compound: Cc1csc(=NC2CCCCC2)n1/N=C/c1ccc(O)c(O)c1O [MIM1] + COc1cc2c(Oc3ccc(NC(=O)C4(C(=O)Nc5ccc(F)cc5)CC4)cc3F)ccnc2cc1OCCCN1CCOCC1 [Foretinib] (partner 0.25 µM)
- relative viability (NCI-H596; first compound 0.2 µM): 0.886
- relative viability (NCI-H596; first compound 0.6325 µM): 0.741
- relative viability (NCI-H596; first compound 2 µM): 0.858
- relative viability (NCI-H596; first compound 6.325 µM): 0.848
- relative viability (NCI-H596; first compound 20 µM): 0.636
- relative viability (A549; first compound 0.2 µM): 0.917
- relative viability (A549; first compound 0.6325 µM): 0.939
- relative viability (A549; first compound 2 µM): 1.02
- relative viability (A549; first compound 6.325 µM): 0.771
- relative viability (A549; first compound 20 µM): 0.144
- relative viability (EBC-1; first compound 0.2 µM): 0.108
- relative viability (EBC-1; first compound 0.6325 µM): 0.102
- relative viability (EBC-1; first compound 2 µM): 0.119
- relative viability (EBC-1; first compound 6.325 µM): 0.106
- relative viability (EBC-1; first compound 20 µM): 0.119
- relative viability (IA-LM; first compound 0.2 µM): 1.11
- relative viability (IA-LM; first compound 0.6325 µM): 1.29
- relative viability (IA-LM; first compound 2 µM): 1.28
- relative viability (IA-LM; first compound 6.325 µM): 0.842
- relative viability (IA-LM; first compound 20 µM): 0.476
- relative viability (NCI-H1703; first compound 0.2 µM): 0.417
- relative viability (NCI-H1703; first compound 0.6325 µM): 0.391
- relative viability (NCI-H1703; first compound 2 µM): 0.375
- relative viability (NCI-H1703; first compound 6.325 µM): 0.296
- relative viability (NCI-H1703; first compound 20 µM): 0.181
- relative viability (SK-LU-1; first compound 0.2 µM): 0.849
- relative viability (SK-LU-1; first compound 0.6325 µM): 0.821
- relative viability (SK-LU-1; first compound 2 µM): 0.849
- relative viability (SK-LU-1; first compound 6.325 µM): 0.75
- relative viability (SK-LU-1; first compound 20 µM): 0.788
- relative viability (PC-14; first compound 0.2 µM): 0.931
- relative viability (PC-14; first compound 0.6325 µM): 0.942
- relative viability (PC-14; first compound 2 µM): 0.908
- relative viability (PC-14; first compound 6.325 µM): 0.784
- relative viability (PC-14; first compound 20 µM): 0.629
- relative viability (NCI-H1299; first compound 0.2 µM): 1.15
- relative viability (NCI-H1299; first compound 0.6325 µM): 1.09
- relative viability (NCI-H1299; first compound 2 µM): 1.14
- relative viability (NCI-H1299; first compound 6.325 µM): 1.06
- relative viability (NCI-H1299; first compound 20 µM): 1.06
- relative viability (NCI-H1944; first compound 0.2 µM): 0.908
- relative viability (NCI-H1944; first compound 0.6325 µM): 0.93
- relative viability (NCI-H1944; first compound 2 µM): 0.581
- relative viability (NCI-H1944; first compound 6.325 µM): 0.709
- relative viability (NCI-H1944; first compound 20 µM): 0.564
- relative viability (NCI-H1666; first compound 0.2 µM): 0.943
- relative viability (NCI-H1666; first compound 0.6325 µM): 0.962
- relative viability (NCI-H1666; first compound 2 µM): 1
- relative viability (NCI-H1666; first compound 6.325 µM): 0.724
- relative viability (NCI-H1666; first compound 20 µM): 0.597
- relative viability (NCI-H661; first compound 0.2 µM): 0.933
- relative viability (NCI-H661; first compound 0.6325 µM): 1
- relative viability (NCI-H661; first compound 2 µM): 0.939
- relative viability (NCI-H661; first compound 6.325 µM): 0.75
- relative viability (NCI-H661; first compound 20 µM): 0.355
- relative viability (Calu-6; first compound 0.2 µM): 0.847
- relative viability (Calu-6; first compound 0.6325 µM): 0.894
- relative viability (Calu-6; first compound 2 µM): 0.816
- relative viability (Calu-6; first compound 6.325 µM): 0.797
- relative viability (Calu-6; first compound 20 µM): 0.318
- relative viability (NCI-H1623; first compound 0.2 µM): 0.88
- relative viability (NCI-H1623; first compound 0.6325 µM): 0.721
- relative viability (NCI-H1623; first compound 2 µM): 0.914
- relative viability (NCI-H1623; first compound 6.325 µM): 0.718
- relative viability (NCI-H1623; first compound 20 µM): 0.409
